In US20100009970A1, “COMPOSITIONS AND METHODS FOR TREATMENT OF VIRAL DISEASES” (Combinatorx (Singapore) Pte. Ltd., priority 2008, published 2010):
Like-named read-outs stand apart in the source and are kept apart here.

Legend:
[1] = test system: Huh7 cells expressing a subgenomic RNA replicon of Con1 (genotype 1b) sequence origin; assay: microbe, parasite or virus in culture; settings: Hepatitis C virus
[2] = in vitro; settings: human
[3] = Huh-7, read-out: IC50 (uM) [SG]
[4] = Huh-7, read-out: Max Effect@CC30 (inhibition)

SMILES | IC50 ([1]; Huh-7) [µM] | IC90 ([1]; Huh-7) [µM] | IC50 [1, 3] [µM] | Emax ([1]; Huh-7, read-out: Max Effect @CC30 (inhibition)) [%] | Emax [1, 4] [%] | CC50 ([2]; CC50 (uM)) [µM] | CC50 ([2]; CC50 (uM) [SG]) [µM]
CSc1ccc(Oc2ccc(S(N)(=O)=O)cc2CN(C)C)cc1 [Compound 46, 3-((dimethylamino)methyl)-4-(4-(methylthio)phenoxy)benzenesulfonamide] | 26.3 | 60.9 | 26.3 | 83.2 | 83.2 | > 50 | > 50
CSc1ccc(Oc2ccc(S(N)(=O)=O)cc2CO)cc1C [Compound 47, 3-(hydroxymethyl)-4-(3-methyl-4-(methylthio)phenoxy)benzenesulfonamide] | 18.1 |  | 18.1 |  | 63.5 | > 50 | > 50
CSc1ccc(Oc2ccc(S(=O)(=O)Nc3ccccc3)cc2CN(C)C)cc1C [Compound 49, 3-((dimethylamino)methyl)-4-(3-methyl-4-(methylthio)phenoxy)-N-phenylbenzenesulfonamide] |  |  | 6.53 |  | 15.3 |  | 10.8
CNCc1cc([N+](=O)[O-])ccc1Oc1ccc(SC)c(C)c1 [Compound 50, N-methyl-1-(2-(3-methyl-4-(methylthio)phenoxy)-5-nitrophenyl)methanamine] |  | 11.4 | 6.04 |  | 90 |  | 26.1
CSc1ccc(Oc2ccc(N)cc2CN(C)C)cc1C [Compound 53, 3-((dimethylamino)methyl)-4-(3-methyl-4-(methylthio)phenoxy)aniline] |  | 45.7 | 22.6 |  | 91.5 |  | > 50
CSc1ccc(Oc2ccc([N+](=O)[O-])cc2CN(C)C)cc1C [Compound 54, N,N-dimethyl-1-(2-(3-methyl-4-(methylthio)phenoxy)-5-nitrophenyl)methanamine] |  | 7.07 | 6.18 |  | 97.9 |  | > 50
CN(C)Cc1ccccc1Oc1ccc(Br)cc1 [Compound 55, (2-(4-bromophenoxy)phenyl)-N,N-dimethylmethanamine] |  |  | 29.9 |  | 77.2 |  | > 50
CSc1ccc(Oc2ccc(S(=O)(=O)Nc3ccc(Br)cc3)cc2CN(C)C)cc1C [Compound 57, N-(4-bromophenyl)-3-((dimethylamino)methyl)-4-(3-methyl-4-(methylthio)phenoxy)benzenesulfonamide] |  |  | 11 |  |  |  | 8.17
CSc1ccc(Oc2ccc(S(N)(=O)=O)cc2N)cc1C [Compound 58, 3-amino-4-(3-methyl-4-(methylthio)phenoxy)benzenesulfonamide] |  |  | 15.3 |  |  |  | > 50
COc1ccc(NS(=O)(=O)c2ccc(Oc3ccc(SC)c(C)c3)c(CN(C)C)c2)cc1 [Compound 59, 3-((dimethylamino)methyl)-N-(4-methoxyphenyl)-4-(3-methyl-4-(methylthio)phenoxy)benzenesulfonamide] |  |  | 6.39 |  |  |  | 8.32
CSc1ccc(Oc2cc(Br)ccc2CN(C)C)cc1C [Compound 60, 1-(4-bromo-2-(3-methyl-4-(methylthio)phenoxy)phenyl)-N,N-dimethylmethanamine] |  |  | 12.6 |  |  |  | 28.7
Cc1cc(Oc2ccc(S(N)(=O)=O)cc2CN(C)C)ccc1Br [Compound 61, 4-(4-bromo-3-methylphenoxy)-3-((dimethylamino)methyl)benzenesulfonamide] |  |  | 12.1 |  |  |  | > 50
CSc1ccc(Oc2ccc(S(N)(=O)=O)cc2CN2CCN(C)CC2)cc1C [Compound 63, 4-(3-methyl-4-(methylthio)phenoxy)-3-((4-methylpiperazine-1-yl)methyl)benzenesulfonamide] |  | 10.5 | 4.82 |  |  |  | > 50
CSc1ccc(Oc2cc(C#N)ccc2CN(C)C)cc1C [Compound 64, 4-((dimethylamino)methyl)-3-(3-methyl-4-(methylthio)phenoxy)benzonitrile] |  |  | 22.5 |  |  |  | > 50
Cc1cccc(Oc2ccc(S(N)(=O)=O)cc2CC(C)C)c1 [Compound 65, 3-isobutyl-4-(m-tolyloxy)benzenesulfonamide] |  | 50 | 30.7 |  |  |  | > 50
CSc1ccc(Oc2ccc(S(N)(=O)=O)cc2CN2CC[C@H](O)C2)cc1C [Compound 66, (S)-3-((3-hydroxypyrrolidin-1-yl)methyl)-4-(3-methyl-4-(methylthio)phenoxy)benzenesulfonamide] |  | 6.78 | 2.43 |  |  |  | > 50
CSc1ccc(Oc2ccc(S(N)(=O)=O)cc2CN2CC[C@@H](O)C2)cc1C [Compound 67, (R)-3-((3-hydroxypyrrolidin-1-yl)methyl)-4-(3-methyl-4-(methylthio)phenoxy)benzenesulfonamide] |  | 7.4 | 2.26 |  |  |  | > 50
CSc1ccc(Oc2ccc(S(N)(=O)=O)cc2CNC[C@@H](C)O)cc1C [Compound 68, (R)-3-((2-hydroxypropylamino)methyl)-4-(3-methyl-4-(methylthio)phenoxy)benzenesulfonamide] |  | 15.3 | 4.34 |  |  |  | > 50

SMILES | IC50 ([1]; Huh-7) [µM] | IC90 ([1]; Huh-7) [µM] | IC50 [1, 3] [µM] | Emax ([1]; Huh-7, read-out: Max Effect @CC30 (inhibition)) [%] | Emax [1, 4] [%] | CC50 ([2]; CC50 (uM)) [µM] | CC50 ([2]; CC50 (uM) [SG]) [µM]
CSc1ccc(Oc2ccc(S(N)(=O)=O)cc2CNC[C@H](C)O)cc1C [Compound 69, (S)-3-((2-hydroxypropylamino)methyl)-4-(3-methyl-4-(methylthio)phenoxy)benzenesulfonamide] |  | 10.4 | 3.54 |  |  |  | > 50
CSc1ccc(Oc2ccc(S(N)(=O)=O)cc2CN(C)C[C@@H](C)O)cc1C [Compound 70, (R)-3-(((2-hydroxypropyl)(methyl)amino)methyl)-4-(3-methyl-4-(methylthio)phenoxy)benzenesulfonamide] |  | 23.9 | 7.01 |  |  |  | > 50
CSc1ccc(Oc2ccc(S(N)(=O)=O)cc2CN(C)C[C@H](C)O)cc1C [Compound 71, (S)-3-(((2-hydroxypropyl)(methyl)amino)methyl)-4-(3-methyl-4-(methylthio)phenoxy)benzenesulfonamide] |  | 13.4 | 4.96 |  |  |  | > 50
CSc1cc(S(N)(=O)=O)c(Oc2cc(Br)ccc2CN(C)C)cc1C [Compound 72, 2-(5-bromo-2-((dimethylamino)methyl)phenoxy)-4-methyl-5-(methylthio)benzenesulfonamide] |  |  | 16.3 |  |  |  | 45
CSc1ccc(Oc2ccc(S(N)(=O)=O)cc2CN2CCCCC2)cc1C [Compound 73, 4-(3-methyl-4-(methylthio)phenoxy)-3-(piperidin-1-ylmethyl)benzenesulfonamide] |  | 13.6 | 4.7 |  |  |  | 37.9
CSc1ccc(Oc2ccc(S(N)(=O)=O)cc2CN2CCCN(C)CC2)cc1C [Compound 74, 3-((4-methyl-1,4-diazepan-1-yl)methyl)-4-(3-methyl-4-(methylthio)phenoxy)benzenesulfonamide] |  | 16.1 | 7.31 |  |  |  | 35.9
CNCc1cc(S(N)(=O)=O)ccc1Oc1ccc(SC)c(OC)c1 [Compound 75, 4-(3-methoxy-4-(methylthio)phenoxy)-3-((methylamino)methyl)benzenesulfonamide] |  |  | 11.9 |  |  |  | > 50
CNCc1cc(S(N)(=O)=O)ccc1Oc1ccc([N+](=O)[O-])c(C)c1 [Compound 76, 4-(3-methyl-4-nitrophenoxy)-3-((methylamino)methyl)benzenesulfonamide] |  |  | 31 |  |  |  | > 50
CSc1ccc(N2CN(C)Cc3cc(Br)ccc32)cc1C [Compound 78, 6-bromo-3-methyl-1-(3-methyl-4-(methylthio)phenyl)-1,2,3,4-tetrahydroquinazoline] |  | 15.5 | 13.7 |  |  |  | 24.9
CSc1ccc(Oc2ccc(S(N)(=O)=O)cc2CNCCCN(C)C)cc1C [Compound 79, 3-((3-(dimethylamino)propylamino)methyl)-4-(3-methyl-4-(methylthio)phenoxy)benzenesulfonamide] |  | 9.66 | 3.44 |  |  |  | 17.8
CSc1ccc(Oc2ccc(S(N)(=O)=O)cc2CN2CCOCC2)cc1C [Compound 82, 4-(3-methyl-4-(methylthio)phenoxy)-3-(morpholinomethyl)benzenesulfonamide] |  |  | 20.8 |  |  |  | > 50
CNCc1cc(S(N)(=O)=O)ccc1Oc1ccc(C)c(C)c1 [Compound 84, 4-(3,4-dimethylphenoxy)-3-((methylamino)methyl)benzenesulfonamide] |  | 39.6 | 28.1 |  |  |  | 46.7
CSc1ccc(Oc2ccc(S(N)(=O)=O)cc2CN2CC[C@H](F)C2)cc1C [Compound 85, (S)-3-((3-fluoropyrrolidin-1-yl)methyl)-4-(3-methyl-4-(methylthio)phenoxy)benzenesulfonamide] |  |  | 7.22 |  |  |  | > 50
CSc1ccc(Oc2ccc(S(N)(=O)=O)cc2C=C(C)C)cc1C [Compound 86, 4-(3-methyl-4-(methylthio)phenoxy)-3-(2-methylprop-1-enyl)benzenesulfonamide] |  |  | 34.8 |  |  |  | > 50
CSc1ccc(Oc2ccc(S(N)(=O)=O)cc2CN2CCN(c3ccccc3F)CC2)cc1C [Compound 87, 3-((4-(2-fluorophenyl)piperazin-1-yl)methyl)-4-(3-methyl-4-(methylthio)phenoxy)benzenesulfonamide] |  |  | 23.5 |  |  |  | 30.2
CSc1ccc(Oc2ccc(S(N)(=O)=O)cc2CN2CC[C@H](N(C)C)C2)cc1C [Compound 88, (S)-3-((3-(dimethylamino)pyrrolidin-1-yl)methyl)-4-(3-methyl-4-(methylthio)phenoxy)benzenesulfonamide] |  | 13.2 | 4.15 |  |  |  | 39.4
CSc1ccc(Oc2ccc(S(N)(=O)=O)cc2CN2CCC(N3CCOCC3)CC2)cc1C [Compound 89, 4-(3-methyl-4-(methylthio)phenoxy)-3-((4-morpholinopiperidin-1-yl)methyl)benzenesulfonamide] |  | 21.3 | 6.62 |  |  |  | > 50
